For the experiment, the system named is HepG2 cells isolated from tumor-bearing mice. Briefly: Chemosensitization of cultured HepG2 cells isolated from xenografts. The experiment is classed as cell-based, human. The settings on record: 72 h-cultured, PL 0.2 μM, Chemo 0.15 μM DXR, Pter = in vivo pretreatment. The method, then:
FIGS. 18-25. Effect of piperlongumine and I-BET762, as GSH depleting and chemosensitizing agents, in in vitro growing human melanoma, pancreatic, breast, lung, liver, prostate, ovarian, and colorectal cancer cells. Cancer cells, isolated from Pter-treated tumor-bearing mice, were cultured as indicated under Methods. Chemotherapy (0.25 μM PAC.PBP in A2058 melanoma and MDA-MB-231 breast carcinoma cells; 0.125 μM PAC.PBP and 25 μM GTB in AsPC-1 pancreatic cancer cells; 1 μM VRB and 15 μM cisPt in A459 lung carcinoma cells; 0.15 μM DXR in HepG2 hepatocellular carcinoma cells; 15 nM DCT in PC-3 prostate carcinoma cells; 0.15 μM PAC.PBP and 25 μM CarboPt in SK-OV-3 ovarian carcinoma cells; 3 μM 5-FU, 1 μM FA and 0.6 μM IRI in HT-29 colorectal carcinoma cells) was added to the cultured flasks 24 h after seeding. […]
Human A2058, MeWo and MelJuso melanoma cells, and mouse AtT-20 pituitary corticotroph tumor cells were from the American Type Culture Collection (ATCC). […] Cell numbers were determined using a Coulter Counter (Coulter Electronic Inc., Miami, Fla.). […] Cellular viability was assessed as previously reported (Mena, S. et al. Clin Cancer Res 13, 2658-2666 (2007)), by measuring trypan blue exclusion and leakage of lactate dehydrogenase activity. […]
(Xenograft models place foreign cells or tissue in a host animal.)

On to `COc1cc(/C=C/c2ccc(O)cc2)cc(OC)c1` [Pter, trans-3,5-dimethoxy-4′-hydroxystilbene], for which the Viable cells is 1580 ± 318 ×10^6.

Source of the values: patent US11179348B2, “Combination comprising pterostilbene for the treatment of cancer” (FUNDACIÓN UNIVERSIDAD CATÓLICA DE VALENCIA SAN VICENTE …, priority 2015, dated 2021).
